From patent US6737383B1, “Herbicidal oxadiazolidines” (priority 1999, dated 2004)

Key:
sourgrass = assay: Test D sourgrass; format: in vivo, Trichachne insularis; details: Preemergence, 0 to 100 scale
Source text: Seeds, tubers, or plant parts of Alexandergrass (Brachiaria plantaginea), bermuda-grass (Cynodon dactylon), common pursiane (Portulaca oleracea), common ragweed (Ambrosia elatior), common groundsel (Senecio vulgaris), dallisgrass (Paspalum dilatatum), goosegrass (Eleusine indica), guineagrass (Panicum maximum), itchgrass (Rottboellia exaltata), Johnson grass (Sorghum halepense), large crabgrass (Digitaria sanguinalis), pitted morningglory (Ipomoea lacunosa), purple nutsedge (Cyperus rotundus), sandbur (Cenchrus echinatus), sourgrass (Trichachne insularis), Spanishneedles (Bidens bipinnata), surinam grass (Brachiaria decumbens) and tall mallow (Malva sylvestris) were planted into greenhouse pots of flats containing greenhouse planting medium. Plant species were grown in separate pots or individual compartments. Preemergence applications were made within one day of planting the seed or plant part.
Test chemicals were formulated in a non-phytotoxic solvent mixture which included a surfactant and applied preemergence to the surface of the pot containing seeds in a sandy loam soil. Untreated control pots and treated pots were placed in the greenhouse for growth and visually evaluated for injury 14 to 21 days after herbicide application. Plant response ratings, summarized in Table C, are based on a 0 to 100 scale where 0 is no injury and 100 is complete control. A dash (−) response means no test result.

black nightshade [1] = assay: Test E black nightshade; format: in vivo, Solanum nigra; details: Postemergence
Method: (§1) Compounds evaluated in this test were formulated in a non-phytotoxic solvent mixture which included a surfactant and applied to plants that were in the 1- to 4-leaf stage (postemergence application). A mixture of sandy loam soil and greenhouse potting mix in a 60:40 ratio was used for the postemergence test.
(§2) Plantings of these crops and weed species were adjusted to produce plants of appropriate size for the postemergence test. All plant species were grown using normal greenhouse practices. Crop and weed species include annual bluegrass (Poa annua), blackgrass (Alopecurus myosuroides), black nightshade (Solanum nigra), chickweed (Stellaria media), common poppy (Papaver rhoeas), deadnettle (Lamium amplexicaule), downy brome (Bromus tectorum), field violet (Viola arvensis), galium (Galium aparine), green foxtail (Setaria viridis), Italian ryegrass (Lolium multiflorum), jointed goatgrass (Aegilops cylindrica), kochia (Kochia scoparia), lambsquarters (Chenopodium album), littleseed canarygrass (Phalaris minor), rape (Brassica napus), redroot pigweed (Amaranthus retroflexus), Russian thistle (Salsola kali), scentless chamomile (Matricaria inodora), spring barley (Hordeum vulgare), sugar beet (Beta vulgaris), sunflower (Helianthus annuus), ivyleaf speedwell (Veronica hederaefolia), spring wheat (Triticum aestivum), winter wheat (Triticum aestivum), wild buckwheat (Polygonum convolvulus), wild mustard (Sinapis arvensis), wild oat (Avena fatua), windgrass (Apera spica-venti) and winter barley (Hordeum vulgare).
(§3) Treated plants and untreated controls were maintained in a greenhouse for approximately 21 to 28 days, after which all treated plants were compared to untreated controls and visually evaluated. […] A dash response (-) means no test result.

green foxtail = assay: Test E green foxtail; format: in vivo, Setaria viridis; details: Postemergence
Method: as §1, §2, §3

kochia [2] = assay: Test E kochia; format: in vivo, Kochia scoparia; details: Postemergence
Method: as §1, §2, §3

littleseed canarygrass [3] = assay: Test E littleseed canarygrass; format: in vivo, Phalaris minor; details: Postemergence
Method: as §1, §2, §3

redroot pigweed = assay: Test E redroot pigweed; format: in vivo, Amaranthus retroflexus; details: Postemergence
Method: as §1, §2, §3

spring wheat = assay: Test E spring wheat; format: in vivo, Triticum aestivum; details: Postemergence
Method: as §1, §2, §3

wild oat = assay: Test E wild oat; format: in vivo, Avena fatua; details: Postemergence
Method: as §1, §2, §3

windgrass = assay: Test E windgrass; format: in vivo, Apera spica-venti; details: Postemergence, Rate 62 g/ha; 0 to 100 scale
Method in brief: (§4)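 For postemergence, plants at the 1- to 4-leaf stage, in a 60:40 mix of sandy loam and potting mix, treated with compound formulated in a surfactant-containing non-phytotoxic solvent. Visual assessment versus untreated controls followed roughly 21–28 days in the greenhouse.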

winter barley = assay: Test E winter barley; format: in vivo, Hordeum vulgare; details: Postemergence
Method in brief: as §4

black nightshade [4] = assay: Test E black nightshade; format: in vivo, Solanum nigra; details: Preemergence
chickweed = assay: Test E chickweed; format: in vivo, Stellaria media; details: Preemergence
deadnettle = assay: Test E deadnettle; format: in vivo, Lamium amplexicaule; details: Preemergence
jointed goatgrass = assay: Test E jointed goatgrass; format: in vivo, Aegilops cylindrica; details: Preemergence
kochia [5] = assay: Test E kochia; format: in vivo, Kochia scoparia; details: Preemergence
littleseed canarygrass [6] = assay: Test E littleseed canarygrass; format: in vivo, Phalaris minor; details: Preemergence
spring barley = assay: Test E spring barley; format: in vivo, Hordeum vulgare; details: Preemergence
sugar beet = assay: Test E sugar beet; format: in vivo, Beta vulgaris; details: Preemergence
wild mustard = assay: Test E wild mustard; format: in vivo, Sinapis arvensis; details: Preemergence
scentless chamomile = assay: Test E scentless chamomile; format: in vivo, Matricaria inodora; details: Preemergence
[7] = Rate 250 g/ha, 0 to 100 scale (0 no effect, 100 complete control)
[8] = Rate 62 g/ha, 0 to 100 scale, 0 no effect, 100 complete control
[9] = Rate 125 g/ha, 0 to 100 scale (0 no effect, 100 complete control)

Cc1ccccc1-n1c(=O)on(C(=O)N(c2ccc(F)cc2)C(C)C)c1=O [Compound 4]
Plant response rating, Sourgrass (sourgrass; Rate 16 g/ha, 0 no injury, 100 complete control): 50
Plant response rating, Sourgrass (sourgrass; Rate 32 g/ha, 0 no injury, 100 complete control): 65
Sourgrass plant response rating (sourgrass; Rate 64 g/ha, 0 no injury, 100 complete control): 90
Sourgrass plant response rating (sourgrass; Rate 125 g/ha, 0 no injury, 100 complete control): 100
Plant response rating, Sourgrass (sourgrass; Rate 250 g/ha): 100
Plant response rating, Sourgrass (sourgrass; Rate 500 g/ha): 100

C=CCn1c(=O)on(C(=O)N(c2ccccc2)C(C)C)c1=O [Compound 93]
Plant response rating, Blk nightshade (black nightshade [1]; Rate 62 g/ha, 0 to 100 scale): 0
Plant response rating, Blk nightshade (black nightshade [1]; Rate 125 g/ha, 0 to 100 scale): 0
Plant response rating, Blk nightshade (black nightshade [1]; [7]): 50
Plant response rating, Green foxtail (green foxtail; Rate 62 g/ha, 0 to 100 scale): 0
Plant response rating, Green foxtail (green foxtail; Rate 125 g/ha, 0 to 100 scale): 0
Plant response rating, Green foxtail (green foxtail; [7]): 0
Plant response rating, Kochia (kochia [2]; Rate 62 g/ha, 0 to 100 scale): 0
Plant response rating, Kochia (kochia [2]; Rate 125 g/ha, 0 to 100 scale): 0
Plant response rating, Kochia (kochia [2]; [7]): 0
Plant response rating, LS canarygrass (littleseed canarygrass [3]; Rate 62 g/ha, 0 to 100 scale): 0
Plant response rating, LS canarygrass (littleseed canarygrass [3]; Rate 125 g/ha, 0 to 100 scale): 0
Plant response rating, LS canarygrass (littleseed canarygrass [3]; [7]): 0
Plant response rating, Redroot pigweed (redroot pigweed; Rate 62 g/ha, 0 to 100 scale): 0
Plant response rating, Redroot pigweed (redroot pigweed; Rate 125 g/ha, 0 to 100 scale): 0
Plant response rating, Redroot pigweed (redroot pigweed; [7]): 0
Plant response rating, Spring Wheat (spring wheat; Rate 62 g/ha, 0 to 100 scale): 0
Plant response rating, Spring Wheat (spring wheat; Rate 125 g/ha, 0 to 100 scale): 0
Plant response rating, Spring Wheat (spring wheat; [7]): 0
Plant response rating, Wild oat (wild oat; Rate 62 g/ha, 0 to 100 scale): 0
Plant response rating, Wild oat (wild oat; Rate 125 g/ha, 0 to 100 scale): 0
Plant response rating, Wild oat (wild oat; [7]): 0
Plant response rating, Windgrass (windgrass): 60
Plant response rating, Barley (winter) (winter barley; Rate 62 g/ha, 0 to 100 scale): 0
Plant response rating, Barley (winter) (winter barley; Rate 125 g/ha, 0 to 100 scale): 0
Plant response rating, Barley (winter) (winter barley; [7]): 0
Plant response rating, Blk nightshade (black nightshade [4]; [8]): 60
Plant response rating, Blk nightshade (black nightshade [4]; [9]): 65
Plant response rating, Blk nightshade (black nightshade [4]; Rate 250 g/ha, 0 to 100 scale): 80
Plant response rating, Chickweed (chickweed; [8]): 60
Plant response rating, Chickweed (chickweed; [9]): 20
Plant response rating, Chickweed (chickweed; Rate 250 g/ha, 0 to 100 scale): 100
Plant response rating, Deadnettle (deadnettle; [8]): 10
Plant response rating, Deadnettle (deadnettle; [9]): 10
Plant response rating, Deadnettle (deadnettle; Rate 250 g/ha, 0 to 100 scale): 85
Plant response rating, Jointed goatgra (jointed goatgrass; [8]): 15
Plant response rating, Jointed goatgra (jointed goatgrass; [9]): 70
Plant response rating, Jointed goatgra (jointed goatgrass; Rate 250 g/ha, 0 to 100 scale): 60
Plant response rating, Kochia (kochia [5]; [8]): 0
Plant response rating, Kochia (kochia [5]; [9]): 0
Plant response rating, Kochia (kochia [5]; Rate 250 g/ha, 0 to 100 scale): 20
Plant response rating, LS canarygrass (littleseed canarygrass [6]; [8]): 40
Plant response rating, LS canarygrass (littleseed canarygrass [6]; [9]): 80
Plant response rating, LS canarygrass (littleseed canarygrass [6]; Rate 250 g/ha, 0 to 100 scale): 60
Plant response rating, Spring Barley (spring barley; [8]): 5
Plant response rating, Spring Barley (spring barley; [9]): 10
Plant response rating, Spring Barley (spring barley; Rate 250 g/ha, 0 to 100 scale): 60
Plant response rating, Sugar beet (sugar beet; [8]): 0
Plant response rating, Sugar beet (sugar beet; [9]): 10
Plant response rating, Sugar beet (sugar beet; Rate 250 g/ha, 0 to 100 scale): 5
Plant response rating, Wild mustard (wild mustard; [8]): 30
Plant response rating, Wild mustard (wild mustard; [9]): 65
Plant response rating, Wild mustard (wild mustard; Rate 250 g/ha, 0 to 100 scale): 80

CCn1c(=O)on(C(=O)N(c2ccc(Cl)cc2)C(C)C)c1=O [Compound 108]
Plant response rating, Blk nightshade (black nightshade [1]; Rate 62 g/ha, 0 to 100 scale): 20
Plant response rating, Blk nightshade (black nightshade [1]; Rate 125 g/ha, 0 to 100 scale): 30
Plant response rating, Blk nightshade (black nightshade [1]; [7]): 50
Plant response rating, Green foxtail (green foxtail; Rate 62 g/ha, 0 to 100 scale): 10
Plant response rating, Green foxtail (green foxtail; Rate 125 g/ha, 0 to 100 scale): 15
Plant response rating, Green foxtail (green foxtail; [7]): 75
Plant response rating, Kochia (kochia [2]; Rate 62 g/ha, 0 to 100 scale): 20
Plant response rating, Kochia (kochia [2]; Rate 125 g/ha, 0 to 100 scale): 40
Plant response rating, Kochia (kochia [2]; [7]): 30
Plant response rating, LS canarygrass (littleseed canarygrass [3]; Rate 62 g/ha, 0 to 100 scale): 0
Plant response rating, LS canarygrass (littleseed canarygrass [3]; Rate 125 g/ha, 0 to 100 scale): 20
Plant response rating, LS canarygrass (littleseed canarygrass [3]; [7]): 70
Plant response rating, Redroot pigweed (redroot pigweed; Rate 62 g/ha, 0 to 100 scale): 5
Plant response rating, Redroot pigweed (redroot pigweed; Rate 125 g/ha, 0 to 100 scale): 20
Plant response rating, Redroot pigweed (redroot pigweed; [7]): 30
Plant response rating, Spring Wheat (spring wheat; Rate 62 g/ha, 0 to 100 scale): 10
Plant response rating, Spring Wheat (spring wheat; Rate 125 g/ha, 0 to 100 scale): 10
Plant response rating, Spring Wheat (spring wheat; [7]): 20
Plant response rating, Wild oat (wild oat; Rate 62 g/ha, 0 to 100 scale): 0
Plant response rating, Wild oat (wild oat; Rate 125 g/ha, 0 to 100 scale): 5
Plant response rating, Wild oat (wild oat; [7]): 20
Plant response rating, Windgrass (windgrass): 80
Plant response rating, Barley (winter) (winter barley; Rate 62 g/ha, 0 to 100 scale): 10
Plant response rating, Barley (winter) (winter barley; Rate 125 g/ha, 0 to 100 scale): 10
Plant response rating, Barley (winter) (winter barley; [7]): 15
Plant response rating, Blk nightshade (black nightshade [4]; [8]): 50
Plant response rating, Blk nightshade (black nightshade [4]; [9]): 85
Plant response rating, Blk nightshade (black nightshade [4]; Rate 250 g/ha, 0 to 100 scale): 90
Plant response rating, Chickweed (chickweed; [8]): 30
Plant response rating, Chickweed (chickweed; [9]): 40
Plant response rating, Chickweed (chickweed; Rate 250 g/ha, 0 to 100 scale): 30
Plant response rating, Deadnettle (deadnettle; [8]): 10
Plant response rating, Deadnettle (deadnettle; [9]): 10
Plant response rating, Deadnettle (deadnettle; Rate 250 g/ha, 0 to 100 scale): 40
Plant response rating, Jointed goatgra (jointed goatgrass; [8]): 30
Plant response rating, Jointed goatgra (jointed goatgrass; [9]): 40
Plant response rating, Jointed goatgra (jointed goatgrass; Rate 250 g/ha, 0 to 100 scale): 60
Plant response rating, Kochia (kochia [5]; [8]): 50
Plant response rating, Kochia (kochia [5]; [9]): 50
Plant response rating, Kochia (kochia [5]; Rate 250 g/ha, 0 to 100 scale): 40
Plant response rating, LS canarygrass (littleseed canarygrass [6]; [8]): 60
Plant response rating, LS canarygrass (littleseed canarygrass [6]; [9]): 50
Plant response rating, LS canarygrass (littleseed canarygrass [6]; Rate 250 g/ha, 0 to 100 scale): 70
Plant response rating, Scentless chamo (scentless chamomile; [8]): 50
Plant response rating, Scentless chamo (scentless chamomile; [9]): 60
Plant response rating, Scentless chamo (scentless chamomile; Rate 250 g/ha, 0 to 100 scale): 80
Plant response rating, Spring Barley (spring barley; [8]): 10
Plant response rating, Spring Barley (spring barley; [9]): 10
Plant response rating, Spring Barley (spring barley; Rate 250 g/ha, 0 to 100 scale): 5
Plant response rating, Sugar beet (sugar beet; [8]): 60
Plant response rating, Sugar beet (sugar beet; [9]): 40
Plant response rating, Sugar beet (sugar beet; Rate 250 g/ha, 0 to 100 scale): 60
Plant response rating, Wild mustard (wild mustard; [8]): 50
Plant response rating, Wild mustard (wild mustard; [9]): 90
Plant response rating, Wild mustard (wild mustard; Rate 250 g/ha, 0 to 100 scale): 65
